Laboratory results published in ChEMBL document CHEMBL1128212, “Synthesis and biological evaluation of substituted flavones as gastroprotective agents” (1995).

How the values were obtained:
Rattus norvegicus [1] = test: Percent protection from gastric damage in rats relative to vehicle control following intraperitoneal administration of 20 mg/Kg; type: functional, Stomach
Rattus norvegicus [2] = species on record: Rattus norvegicus; test: The dose required to produce a 50% gastroprotection level relative to control; type: functional
Rattus norvegicus [3] = test: Gastroprotection percentage taken from rat indomethacin damage model at a dose 0.25 mg/kg administered orally; type: functional; conditions: route oral
Rattus norvegicus [4] = test: Compound was evaluated for its effect on rat liver microsomal EROD(7-ethoxyresorufin O-dealkylase) by the change in its concentration at a dose of 100 mg/kg; type: functional, organism-based; parameters: dose 100 mg/kg
Rattus norvegicus [5] = test: Compound was evaluated for its effect on rat liver microsomal NADPH-[…] c reductase by the change in its concentration at a dose of 100 mg/kg; type: functional, organism-based; parameters: dose 100 mg/kg
Rattus norvegicus [6] = test: Compound was evaluated for its effect on rat liver microsomal cytochrome b5 by the change in its concentration at a dose of 100 mg/kg; type: functional, organism-based; parameters: dose 100 mg/kg
Rattus norvegicus [7] = test: Compound was evaluated for its effect on rat liver microsomal cytochrome P450 by the change in its concentration at a dose of 100 mg/kg; type: functional, organism-based; parameters: dose 100 mg/kg
Rattus norvegicus [8] = test: Compound was evaluated for its effect on rat liver microsomal EROD(7-ethoxyresorufin O-dealkylase) by the change in its concentration at a dose of 250 mg/kg; type: functional, organism-based; parameters: dose 250 mg/kg
Rattus norvegicus [9] = test: Compound was evaluated for its effect on rat liver microsomal NADPH-[…] c reductase by the change in its concentration at a dose of 250 mg/kg; type: functional, organism-based; parameters: dose 250 mg/kg
Rattus norvegicus [10] = test: Compound was evaluated for its effect on rat liver microsomal cytochrome P450 by the change in its concentration at a dose of 250 mg/kg; type: functional, organism-based; parameters: dose 250 mg/kg
Rattus norvegicus [11] = test: Compound was evaluated for its effect on rat liver microsomal cytochrome b5 by the change in its concentration at a dose of 250 mg/kg; type: functional, organism-based; parameters: dose 250 mg/kg
Rattus norvegicus [12] = test: Compound was evaluated for its effect on rat liver microsomal EROD(7-ethoxyresorufin O-dealkylase) by the change in its concentration at a dose of 268 mg/kg; type: functional, organism-based; parameters: dose 268 mg/kg
Rattus norvegicus [13] = test: Compound was evaluated for its effect on rat liver microsomal NADPH-[…] c reductase by the change in its concentration at a dose of 268 mg/kg; type: functional, organism-based; parameters: dose 268 mg/kg
Rattus norvegicus [14] = test: Compound was evaluated for its effect on rat liver microsomal cytochrome P450 by the change in its concentration at a dose of 268 mg/kg; type: functional, organism-based; parameters: dose 268 mg/kg
Rattus norvegicus [15] = test: Compound was evaluated for its effect on rat liver microsomal cytochrome b5 by the change in its concentration at a dose of 268 mg/kg; type: functional, organism-based; parameters: dose 268 mg/kg
Rattus norvegicus [16] = test: Gastroprotection percentage taken from rat indomethacin damage model at a dose 30 mg/kg administered orally; type: functional; conditions: route oral

Row | SMILES | Protection (Rattus norvegicus [1]) | also measured
1 | O=c1cc(-c2ccccc2)oc2cccc(O)c12 [5-HYDROXYFLAVONE] | 58% | –
2 | O=c1cc(-c2ccccc2)oc2ccc(O)cc12 [6-HYDROXYFLAVONE] | 57% | –
3 | COc1ccc2c(=O)cc(-c3cccc(C(F)(F)F)c3)oc2c1 | 67% | –
4 | COc1ccc2c(=O)cc(-c3ccc(F)cc3)oc2c1 | 67% | ED50 (Rattus norvegicus [2]): 8.9 mg/kg
5 | COc1cccc2oc(-c3ccc(C(F)(F)F)cc3)cc(=O)c12 | 65% | –
6 | COc1cccc2c(=O)cc(-c3ccccc3)oc12 [8-METHOXYFLAVONE] | 53% | –
7 | CCCCC[C@H](O)/C=C/[C@H]1[C@H](O)CC(=O)[C@@H]1C/C=C\CCCC(=O)O [DINOPROSTONE] | 82% | Protection (Rattus norvegicus [3]): 61%
8 | Cc1ccc(-c2cc(=O)c3ccccc3o2)cc1 | 68% | –
9 | CN/C(=N\CCSCc1nc[nH]c1C)NC#N [CIMETIDINE] | 14% | –
10 | COc1c(-c2ccccc2)oc2ccccc2c1=O | 41% | –
11 | COc1ccc2c(=O)cc(-c3ccccc3Cl)oc2c1 | 80% | –
12 | O=c1cc(-c2ccc(O)cc2)oc2ccccc12 | 63% | –
13 | Cc1ccc2c(=O)cc(-c3ccccc3)oc2c1 [7-METHYLFLAVONE] | 90% | ED50 (Rattus norvegicus [2]): 5.6 mg/kg
14 | CCOc1ccc2c(=O)cc(-c3ccccc3)oc2c1 | 87% | –
15 | Cc1cccc2oc(-c3ccccc3)cc(=O)c12 | 52% | –
16 | COc1ccc(-c2cc(=O)c3c(OC)cccc3o2)cc1 | 33% | –
17 | O=c1cc(-c2ccccc2)oc2ccc3ccccc3c12 | – | Concentration (nM min-1 (mg of protein)-1) (Rattus norvegicus [4]): 5010; Concentration (nM min-1 (mg of protein)-1) (Rattus norvegicus [5]): 166; Concentration (nM min-1 (mg of protein)-1) (Rattus norvegicus [6]): 0.79; Concentration (nM min-1 (mg of protein)-1) (Rattus norvegicus [7]): 2.02
18 | COc1ccc(-c2cc(=O)c3ccccc3o2)cc1 [4'-METHOXYFLAVONE] | 21% | –
19 | CCOc1cccc2oc(-c3ccccc3)cc(=O)c12 | 36% | –
20 | COc1cccc2oc(-c3ccc(C)cc3)cc(=O)c12 | 93% | –

Row | SMILES | Protection (Rattus norvegicus [1]) | also measured
21 | COc1ccc2c(=O)cc(-c3ccccc3)oc2c1 [7-METHOXYFLAVONE] | 89% | Concentration (nM min-1 (mg of protein)-1) (Rattus norvegicus [8]): 442; Concentration (nM min-1 (mg of protein)-1) (Rattus norvegicus [9]): 339; Concentration (nM min-1 (mg of protein)-1) (Rattus norvegicus [10]): 1.42; Concentration (nM min-1 (mg of protein)-1) (Rattus norvegicus [11]): 0.73; ED50 (Rattus norvegicus [2]): 5.9 mg/kg
22 | COc1cccc2oc(-c3ccc(F)cc3)cc(=O)c12 | 97% | Concentration (nM min-1 (mg of protein)-1) (Rattus norvegicus [12]): 1110; Concentration (nM min-1 (mg of protein)-1) (Rattus norvegicus [13]): 275; Concentration (nM min-1 (mg of protein)-1) (Rattus norvegicus [14]): 1.17; Concentration (nM min-1 (mg of protein)-1) (Rattus norvegicus [15]): 0.65; ED50 (Rattus norvegicus [2]): 5.5 mg/kg; Protection (Rattus norvegicus [16]): 76%
23 | O=c1cc(-c2ccccc2)oc2ccccc12 [FLAVONE] | 93% | ED50 (Rattus norvegicus [2]): 6.9 mg/kg
24 | COc1cccc2oc(-c3ccccc3)cc(=O)c12 | 97% | ED50 (Rattus norvegicus [2]): 2.6 mg/kg
25 | COc1cccc2oc(-c3cccc(C(F)(F)F)c3)cc(=O)c12 | 90% | ED50 (Rattus norvegicus [2]): 3.3 mg/kg
26 | C=CCOc1cccc2oc(-c3ccccc3)cc(=O)c12 | 57% | –
27 | COc1cccc2oc(-c3ccc(Cl)cc3)cc(=O)c12 | 94% | –
28 | O=c1cc(-c2cccc(O)c2)oc2ccccc12 | 71% | –
29 | COc1ccccc1-c1cc(=O)c2ccccc2o1 | 66% | ED50 (Rattus norvegicus [2]): 22.4 mg/kg
30 | COc1cccc2oc(-c3ccccc3Cl)cc(=O)c12 | 89% | –
31 | COc1cccc2oc(-c3ccc([N+](=O)[O-])cc3)cc(=O)c12 | 52% | –
32 | O=c1c(O)c(-c2ccccc2)oc2ccccc12 [FLAVONOL] | 47% | –
33 | COc1cccc(-c2cc(=O)c3ccccc3o2)c1 | 48% | –
34 | O=c1cc(-c2ccccc2)oc2cc(O)ccc12 [7-HYDROXYFLAVONE] | 75% | –
35 | CCCCOc1cccc2oc(-c3ccccc3)cc(=O)c12 | 75% | –
36 | O=c1cc(-c2ccccc2)oc2c(O)cccc12 | 46% | –
37 | Cc1ccccc1-c1cc(=O)c2ccccc2o1 | 92% | –
38 | COc1ccc2oc(-c3ccccc3)cc(=O)c2c1 [6-METHOXYFLAVONE] | 29% | –
39 | O=c1cc(-c2ccccc2O)oc2ccccc12 | 78% | ED50 (Rattus norvegicus [2]): 15.6 mg/kg
